A short description of one series: Comment Code material properties: vapor pressure, ClogP, probability of ingredient color instability, odor detection threshold, melamine formaldehyde PMC headspace response ratio and leakage, liquid dish neat product liquid-air partition coefficient. In kind it is physicochemical. As to conditions: Table 1 materials; each letter of the code is one property class (vapor pressure, ClogP, color instability, odor detection threshold, PMC headspace ratio, PMC leakage, liquid dish liquid-air partition coefficient).
For the molecule `CC1=C2C(CC1)C(C)CCC1C2C1(C)C` (stereo not drawn) [Material 708], the “Comment Code” value is given as “BDEFHJKL”. In the case of `C=C(C)C1CCC(C)C2=C(C1)C(C)CC2` (stereo not drawn) [Material 709], the “Comment Code” value is recorded as “DEFHJKL”. Same read-out and setting: to `C=CC(C)=CCC=C(C)CCC=C(C)C` [Material 710] belongs “DEFHJK”; to `C=C1CC2CCC1C2(C)C` (stereo not drawn) [Material 711], “ADEFGIJKL”. Same read-out and setting: under `CC1=CCCC2(C)CCC(C(C)(C)O)CC12` (stereo not drawn) [Material 712] stands “DEFHJK”; under `CC(C)=CCCC(C)c1ccc(C)cc1` (stereo not drawn) [Material 713], “DEFHJK”; under `CC1=CCC23C(C)CCC(C(C)C)C2C13` (stereo not drawn) [Material 714], “ADEFHJKL”.

With `CC1=CC2C(C(C)C)CCC(C)(O)C2CC1` (stereo not drawn) [Material 716], the “Comment Code” value was “DEFHJK”. Same read-out and setting: under `CC1=CC2C(CC1)C(C)=CCC2C(C)C` (stereo not drawn) [Material 717] stands “DEFHJKL”.

For `CC(C)=CCCC(C)(O)C1CC=C(C)CC1` (stereo not drawn) [Material 718], the “Comment Code” value is recorded as “DFHJK”. On the same count and under the same terms, to `CC(C)=CCC=C(C)C1CC=C(C)CC1` (stereo not drawn) [Material 719] belongs “DEFHJK”; to `CC(C)=CCCC1(C)C2CC=C(C)C1C2` (stereo not drawn) [Material 720], “BDEFHJKL”; to `CCCCCC(=Cc1ccccc1)CO` [Material 721], “DEFHJ”. In the case of `CCCCCC(=Cc1ccccc1)COC(C)=O` [Material 722], the “Comment Code” value is listed as “DEFHJ”. On the same count and under the same terms, to `CCCCCC(=Cc1ccccc1)C(OCC)OCC` [Material 723] belongs “DEFHJ”. Still for that read-out and setting: under `CC1=CC2C(CC1)C(C)=CCC2C(C)C` (stereo not drawn) [Material 725] stands “DEFHJKL”. Same read-out and setting: under `CC1=CCCC2(C)CCC3CC12OC3(C)C` (stereo not drawn) [Material 726] stands “BDEFHJK”; under `CC(C)=CCCC1=CCC(C)(C=O)CC1` (stereo not drawn) [Material 727], “DFHJK”; under `CCCC(O)Cc1ccccc1` (stereo not drawn) [Material 730], “CEFHK”. On to `CCC(C)(O)CCc1ccccc1` (stereo not drawn) [Material 731], for which the “Comment Code” value was “CEFHJK”. The same measure, in the same setting: to `COc1ccc(C=O)c(OC)c1OC` [Material 733] belongs “BCGI”; to `COc1cc(OC)c(C=O)c(OC)c1` [Material 736], “BCGI”. The same measure, in the same setting: under `CCCCC=CC=CC=O` [Material 738] stands “ACHKL”; under `CC(C)CCCC(C)CCCC(C)C=O` (stereo not drawn) [Material 741], “BDFGJK”; under `Cc1ccc(CC(C)C=O)cc1` (stereo not drawn) [Material 742], “ACHJK”. Same read-out and setting: to `C=CCOC(=O)CCC1CCCCC1` [Material 746] belongs “BDEFHJK”. Consider `C=CCOC(=O)COCCC(C)C` [Material 748], for which the “Comment Code” value was “BCEFGJK”. On the same count and under the same terms, under `C=C1CCC2C(C3C(C)CCC13)C2(C)C` (stereo not drawn) [Material 750] stands “BDEFHJKL”; under `COC(=O)c1ccccc1N=CC1CC(C)=CC(C)C1` (stereo not drawn) [Material 754], “DEFHJ”. On the same count and under the same terms, to `CC(C)=CCCC(C)CCCC(C)C=O` (stereo not drawn) [Material 757] belongs “BDFHJK”; to `CCCOC(C)OCCc1ccccc1` (stereo not drawn) [Material 766], “CEFHJK”.

Staying with this series, now noted: cell strings several class symbols together; each letter is one property class of L1.
In the case of `CC1=C2C(CC1)C(C)CCC1C2C1(C)C` (stereo not drawn) [Material 708], the “Comment Code” value is “BDEFHJKL”. Consider `CC1=CCCC2(C)CCC(C(C)(C)O)CC12` (stereo not drawn) [Material 712], for which the “Comment Code” value is on record as “DEFHJK”. The same measure, in the same setting: under `CC1=CCC23C(C)CCC(C(C)C)C2C13` (stereo not drawn) [Material 714] stands “ADEFHJKL”; under `CC1=CCCC2(C)CCC3CC12OC3(C)C` (stereo not drawn) [Material 726], “BDEFHJK”; under `COC1=C(C)OC(C)C1=O` (stereo not drawn) [Material 740], “ACEFGIJKL”. On to `C=CCOC(=O)COc1ccccc1` [Material 743], for which the “Comment Code” value is reported as “BCGK”.

For `C=CCOCCc1ccccc1` [Material 744], the “Comment Code” value is on record as “ACEFHK”. On to `C=C1CCC2C(C3C(C)CCC13)C2(C)C` (stereo not drawn) [Material 750], for which the “Comment Code” value is given as “BDEFHJKL”. Same read-out and setting: to `CCC(=O)N(CC)c1cccc(C)c1` [Material 755] belongs “CEFHJK”; to `CC(=O)C(C)O` (stereo not drawn) [Material 760], “ACEFGIKL”; to `COc1ccc(C(C)=O)cc1` [Material 761], “BCEFHIK”.

The values above are taken from patent publication US20160089464A1, “MALODOR REDUCTION COMPOSITIONS” (The Procter & Gamble Company, priority 2014, published 2016).
